Values belong to the molecule of their own block, whether it stands above or below them.
What was measured:
[1] = tested on: EL-4 murine lymphoma cells; assay: 31P-NMR measurements on acid-extracts of EL-4 cells induced to undergo cell death; type: cell-based
Description: Loss of NAD(H) can be explained by DNA-damage induced activation of the enzyme poly-ADP-ribose polymerase (PARP), which […] various proteins and uses NAD^+ as a substrate.

[2] = tested on: LDH; assay: Enzyme activity measurements on protein extracts from freeze-clamped tumours; type: in vivo, mice; settings: drug-treated tumours, n=3
[3] = tested on: EL-4 tumour
Description: (§1) Lymphoma tumours were produced in mice by subcutaneous implantation of EL4 cells. The mice were treated with an i.p. injection of 67 mg/kg etoposide. Tumour cell death following etoposide treatment was assessed histologically. Non-etoposide treated mice were used as control.
(§2) The time-dependent changes in the tumour signals from lactate and pyruvate were fit to the exchange model to obtain the apparent rate constants, and spin lattice relaxation times (FIG. 3B). The first 10-15 s of data acquisition were lost since this was the time taken to complete the injection and insert the ^13C surface coil probe assembly, containing the animal, into the imaging magnet.
(§3) The data were collected 20 h after treatment of the animals with etoposide. The increased SDs after 40 s reflect the decrease in signal-to-noise on the lactate and pyruvate resonances resulting from the loss of polarisation. […] These extracts were made immediately following completion of the MR experiments.
(§4) In another series of experiments, animals were etoposide-treated 24 h after imaging and then 24 h after etoposide treatment a second set of images were acquired, thus each animal could serve as its own control. However, as with the other experiments, there was little variation within the groups and the group results are presented.

[4] = tested on: EL-4 tumour; assay: 1H NMR measurements on perchloric acid-extracts of freeze-clamped tumours; type: in vivo, mice; settings: etoposide-treated tumours, extracts made immediately after MR experiments, n=8
Description: The data were collected 20 h after treatment of the animals with etoposide. […] These extracts were made immediately following completion of the MR experiments.

[5] = tested on: EL-4 tumour; assay: In vivo 13C-MR spectroscopy of pyruvate-lactate label flux in EL4 tumours after i.v. hyperpolarised 13C1-pyruvate
Description: as §1, §2, §3, §4

[6] = tested on: EL-4 tumour; assay: Tumour cell death (histology) and tumour volume (1H spin echo images) in EL4 lymphoma-bearing mice; type: in vivo
[7] = tested on: EL4 murine lymphoma cells; assay: 13C-MR spectroscopy of hyperpolarised 13C-label flux between pyruvate and lactate in EL4 cell suspensions; type: cell-based; settings: co-treatment of cells with the cell death inducer
Description: EL4 murine lymphoma cells (10^8 cells) were treated with 15 μM etoposide (PCH Pharmachemie BV, Harleem), a compound which is known to induce cell death after 16 h exposure. A separate set of cells was treated for 16 hours with 15 μM etoposide plus 20 mM nicotinamide, a known PARP inhibitor. Cell death (apoptosis and necrosis) was confirmed by acridine orange and propidium iodide staining. The cells were washed 3 times with RPMI 1640 growth medium containing 10% FCS at 37° C. and to 2 ml of the etoposide- and etoposide/nicotinamide treated EL4 cell suspension 2 ml of the imaging medium according to Example 5 were added. The final cell suspension thus contained 30 mM hyperpolarised ^13C1-pyruvate and 37.5 mM lactate.
^13C-signal intensities from ^13C-pyruvate and ^13C-lactate in etoposide-treated EL4 cell suspensions as described in 6.1 were followed over a time period of 240 seconds from the time of addition of the imaging medium. […]
^13C-signal intensities from ^13C-pyruvate and ^13C-lactate in etoposide-treated and etoposide/nicotinamide treated EL4 cell suspensions as described in 6.1 were followed over a time period of 240 seconds from the time of addition of the imaging medium. […] The data were fit to a two-site exchange model based on the modified Bloch equations, and the rate constants for the forward and reverse exchange ^13C-fluxes were determined. […]

[8] = T1 relaxation of 13C1-pyruvate in human full blood; type: physicochemical; settings: human full blood at 37° C.
Description: The amount of alanine, bicarbonate and lactate is dependent on the metabolic status of the tissue under investigation.
The isotopic enrichment of the hyperpolarised ^13C-pyruvate used in the method of the invention is preferably at least 75%, more preferably at least 80% and especially preferably at least 90%, an isotopic enrichment of over 90% being most preferred. Ideally, the enrichment is 100%. ^13C-pyruvate used in the method of the invention may be isotopically enriched at the C1-position (in the following denoted ^13C1-pyruvate), at the C2-position (in the following denoted ^13C2-pyruvate), at the C3-position (in the following denoted ^13C3-pyruvate), at the C1- and the C2-position (in the following denoted ^13C1,2-pyruvate), at the C1- and the C3-position (in the following denoted ^13C1,3-pyruvate), at the C2- and the C3-position (in the following denoted ^13C2,3-pyruvate) or at the C1-, C2- and C3-position (in the following denoted ^13C1,2,3-pyruvate). Isotopic enrichment at the C1-position is preferred since ^13C1-pyruvate has a higher T1 relaxation in human full blood at 37° C. (about 42 s) than ^13C-pyruvate which is isotopically enriched at other C-positions.

[9] = etoposide-treated EL-4 cells compared to untreated control cells

Structure (SMILES): COc1cc([C@@H]2c3cc4c(cc3[C@@H](O[C@@H]3O[C@@H]5CO[C@@H](C)O[C@H]5[C@H](O)[C@H]3O)[C@H]3COC(=O)[C@H]23)OCO4)cc(OC)c1O [etoposide]
intensity of the resonances from NAD(H) [1, 9]: a decrease in the intensity of the resonances from NAD(H) | resonances from fructose-1,6-bisphosphate (FBP) [1, 9]: an increase in the resonances from the glycolytic intermediate, fructose-1,6-bisphosphate (FBP) | LDH activity [2]: 100±20 units/g wet wt. | decrease in flux ([3]; following versus before treatment, n=4): 39% | rate constant ([3]; iv, 24 h): 0.040 ± 0.012 s⁻¹ | lactate/pyruvate ratio by 1H NMR [4]: 5.1±2.0 | rate constant kP^app ([5]; etoposide-treated tumours, 20 h after treatment, n=8): 0.056 ± 0.005 s⁻¹ | calculated equilibrium lactate/pyruvate ratio (L∞/P∞) ([5]; etoposide-treated tumours, n=8): 2.7±0.4 | decrease in the rate constant kP^app ([5]; versus control tumours, data collected 20 h after treatment): approximately 25% | cell death ([6]; 24 h after drug treatment, 67 mg/kg i.p., n=3): 37.0±3.8% | tumour volume ([6]; treated tumours, multi-slice 1H spin echo images, n=8): 1.3±0.2 cm^3

Structure (SMILES): NC(=O)c1cccnc1 [nicotinamide]
effect of PARP inhibition on loss of NAD(H) and increase in FBP concentration in dying cells ([1]; 20 mM nicotinamide): inhibited the loss of NAD(H) and the increase in FBP concentration | ability to transfer hyperpolarised 13C-label between pyruvate and lactate pools [7]: maintained their ability to transfer the hyperpolarised ^13C-label between the pyruvate and lactate pools

Structure (SMILES): NC(=O)c1cccc(N)c1 [3-aminobenzamide]
effect of PARP inhibition on loss of NAD(H) and increase in FBP concentration in dying cells ([1]; 10 mM 3-aminobenzamide): inhibited the loss of NAD(H) and the increase in FBP concentration | ability to transfer hyperpolarised 13C-label between pyruvate and lactate pools [7]: maintained their ability to transfer the hyperpolarised ^13C-label between the pyruvate and lactate pools

T1 relaxation [8]: about 42 s
Structure (SMILES): CC(=O)C(=O)O [^13C1-pyruvate]

From patent US8951500B2, “13C-MR imaging or spectroscopy of cell death” (GE Healthcare AS, priority 2006, dated 2015)
